Results from ChEMBL document CHEMBL3826883, “Discovery of potent and selective inhibitors of human aminopeptidases ERAP1 and ERAP2 by screening libraries of phosphorus-containing amino acid and dipeptide analogues” (Bioorg Med Chem Lett, 2016).

Tests used:
[1] = target: Endoplasmic reticulum aminopeptidase 1 (Homo sapiens, UniProt Q9NZ08); assay: Inhibition of human ERAP1 preincubated for 30 to 60 mins followed by addition of Leu-AMC as substrate measured for 15 mins by spectrofluorimetric method
[2] = target: Endoplasmic reticulum aminopeptidase 2 (Homo sapiens, UniProt Q6P179); assay: Inhibition of human ERAP2 preincubated for 30 to 60 mins followed by addition of Arg-AMC as substrate measured for 15 mins by spectrofluorimetric method
[3] = Inhibition of Plasmodium falciparum APN preincubated for 30 mins followed by addition of L-Arg-ACC as substrate measured for 15 to 30 mins by fluorescence analysis

Sequence of Endoplasmic reticulum aminopeptidase 1 (Q9NZ08 whole entry): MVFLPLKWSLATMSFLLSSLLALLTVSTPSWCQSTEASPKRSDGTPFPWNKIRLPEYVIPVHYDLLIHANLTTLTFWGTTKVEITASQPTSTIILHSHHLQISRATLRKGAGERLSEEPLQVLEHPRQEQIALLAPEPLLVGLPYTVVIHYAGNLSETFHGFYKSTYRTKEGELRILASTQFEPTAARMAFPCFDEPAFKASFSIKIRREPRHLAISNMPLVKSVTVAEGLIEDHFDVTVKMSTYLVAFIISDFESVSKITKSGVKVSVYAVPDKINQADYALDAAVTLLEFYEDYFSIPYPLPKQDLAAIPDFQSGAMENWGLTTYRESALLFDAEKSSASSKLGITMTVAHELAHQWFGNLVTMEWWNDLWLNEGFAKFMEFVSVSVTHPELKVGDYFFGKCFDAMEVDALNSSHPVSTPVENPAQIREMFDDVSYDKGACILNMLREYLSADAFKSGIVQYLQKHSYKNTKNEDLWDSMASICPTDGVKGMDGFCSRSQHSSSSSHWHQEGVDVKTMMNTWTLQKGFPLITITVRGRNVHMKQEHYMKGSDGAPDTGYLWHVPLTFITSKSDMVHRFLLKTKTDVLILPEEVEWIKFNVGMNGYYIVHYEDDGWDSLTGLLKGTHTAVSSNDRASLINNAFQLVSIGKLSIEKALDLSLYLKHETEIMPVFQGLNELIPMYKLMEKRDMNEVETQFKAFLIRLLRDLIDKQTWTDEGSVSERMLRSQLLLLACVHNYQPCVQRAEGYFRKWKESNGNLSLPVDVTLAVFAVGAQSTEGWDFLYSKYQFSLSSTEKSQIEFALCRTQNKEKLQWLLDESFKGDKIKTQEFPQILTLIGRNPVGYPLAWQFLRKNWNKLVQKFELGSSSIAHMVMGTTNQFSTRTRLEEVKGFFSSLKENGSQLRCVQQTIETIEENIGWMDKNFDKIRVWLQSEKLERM
Sequence of Endoplasmic reticulum aminopeptidase 2 (Q6P179 whole entry): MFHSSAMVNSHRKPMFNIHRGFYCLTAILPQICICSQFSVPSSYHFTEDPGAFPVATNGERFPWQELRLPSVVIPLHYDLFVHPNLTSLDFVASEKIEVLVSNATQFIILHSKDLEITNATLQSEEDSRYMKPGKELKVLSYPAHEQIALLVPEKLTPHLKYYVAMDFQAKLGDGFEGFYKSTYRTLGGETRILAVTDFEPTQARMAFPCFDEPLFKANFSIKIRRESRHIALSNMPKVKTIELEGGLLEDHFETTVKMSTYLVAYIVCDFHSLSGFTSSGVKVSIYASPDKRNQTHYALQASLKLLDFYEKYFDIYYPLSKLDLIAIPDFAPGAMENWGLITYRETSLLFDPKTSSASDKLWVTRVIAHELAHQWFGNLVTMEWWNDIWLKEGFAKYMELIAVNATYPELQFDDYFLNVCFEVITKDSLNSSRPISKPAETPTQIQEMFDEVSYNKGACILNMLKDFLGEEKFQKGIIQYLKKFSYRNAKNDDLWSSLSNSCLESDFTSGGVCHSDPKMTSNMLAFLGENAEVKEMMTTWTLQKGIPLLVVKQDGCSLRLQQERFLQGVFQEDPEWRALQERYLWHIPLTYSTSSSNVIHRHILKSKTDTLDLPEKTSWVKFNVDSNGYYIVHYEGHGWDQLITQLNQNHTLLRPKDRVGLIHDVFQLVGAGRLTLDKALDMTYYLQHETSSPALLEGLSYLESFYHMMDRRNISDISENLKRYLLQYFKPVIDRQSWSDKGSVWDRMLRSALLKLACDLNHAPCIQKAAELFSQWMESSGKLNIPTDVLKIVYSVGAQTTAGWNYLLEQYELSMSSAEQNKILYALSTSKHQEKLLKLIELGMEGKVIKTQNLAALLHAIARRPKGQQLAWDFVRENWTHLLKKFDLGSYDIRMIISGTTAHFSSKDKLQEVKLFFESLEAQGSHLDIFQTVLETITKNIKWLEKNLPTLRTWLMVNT

Compound	Ki [1] [µM]	Ki [2] [µM]	Ki [3] [µM]
NC(CN1CCCCC1)P(=O)(O)O (configuration not stated)	> 250		
NC(CNC1CCCCCC1)P(=O)(O)CC(Cc1ccccc1)C(=O)O (configuration not stated)	> 250		
NCC(N)P(=O)(O)CC(Cc1ccccc1)C(=O)O (configuration not stated)	> 250		
NCC(N)P(=O)(O)O (configuration not stated)	> 250		
NC(CNCCN1CCNCC1)P(=O)(O)O (configuration not stated)	> 250		
CC(NCC(N)P(=O)(O)O)c1ccccc1 (configuration not stated)	> 250	> 250	
CCCNCC(N)P(=O)(O)O (configuration not stated)	> 250	> 250	
NC1CCCCC1NCC(N)P(=O)(O)O (configuration not stated)	> 250		
COc1ccc(CCNCC(N)P(=O)(O)O)cc1 (configuration not stated)	> 250		
NC(CN1CCOCC1)P(=O)(O)O (configuration not stated)	> 250	> 250	
Cc1cc(C)cc(CC(CP(=O)(O)C(N)CCc2ccccc2)C(=O)O)c1 (configuration not stated)	> 250	> 250	
CCCNCC(N)P(=O)(O)CC(Cc1ccccc1)C(=O)O (configuration not stated)	> 250		
NC(CNCC1CCCO1)P(=O)(O)O (configuration not stated)	> 250	> 250	
COc1ccc(CCNCC(N)P(=O)(O)CC(Cc2ccccc2)C(=O)O)cc1 (configuration not stated)	> 250		
CCCCCCNCC(N)P(=O)(O)O (configuration not stated)	> 250		
CC(C)C[C@@H](N)P(=O)(O)O	249	> 250	
NC(CNC1CCCCC1)P(=O)(O)O (configuration not stated)	> 250		
NC(CCc1ccccc1)P(=O)(O)CC(Cc1ccc(O)cc1)C(=O)O (configuration not stated)	6.47	1.04	
N[C@@H](CCc1ccccc1)P(=O)(O)C[C@@H](Cc1ccccc1)C(=O)O (mixture of isomers)	6.27	1.03	

Compound	Ki [1] [µM]	Ki [2] [µM]	Ki [3] [µM]
CC(C)(C)c1ccc(CNCC(N)P(=O)(O)O)cc1 (configuration not stated)	> 250		
CC(C)CNCC(N)P(=O)(O)CC(Cc1ccccc1)C(=O)O (configuration not stated)	> 250		
CN(C)CCNCC(N)P(=O)(O)O (configuration not stated)	> 250	> 250	
NC(CNCc1ccccc1)P(=O)(O)O (configuration not stated)	> 250	106	
NC(CNC1CCCCC1)P(=O)(O)CC(Cc1ccccc1)C(=O)O (configuration not stated)	> 250		
NC(CNCCc1ccccc1)P(=O)(O)O (configuration not stated)	> 250		
NCc1cccc(CC(CP(=O)(O)C(N)CCc2cccnc2)C(=O)O)c1 (configuration not stated)		> 250	
CNCC(N)P(=O)(O)O (configuration not stated)	> 250	> 250	
NC(CCc1ccccc1)P(=O)(O)CC(Cc1ccccc1)C(=O)O (configuration not stated)	19.1	0.35	0.078
CC(C)C[C@H](N)P(=O)(O)O [LEUCINE PHOSPHONIC ACID]	5.08	> 250	
NC(CNC1CCCCCC1)P(=O)(O)O (configuration not stated)	> 250		
Nc1ccc(CNCC(N)P(=O)(O)O)cc1 (configuration not stated)	> 250		
NCc1cccc(CC(CP(=O)(O)C(N)CCc2ccccc2)C(=O)O)c1 (configuration not stated)		> 250	
COc1ccc(CNCC(N)P(=O)(O)O)cc1 (configuration not stated)	> 250		
NCCNCC(N)P(=O)(O)O (configuration not stated)	> 250	> 250	
NCc1ccc(CNCC(N)P(=O)(O)O)cc1 (configuration not stated)	> 250		
NC(CNCC1CCNCC1)P(=O)(O)O (configuration not stated)	> 250		
NCc1ccc(CC(CP(=O)(O)C(N)CCc2ccccc2)C(=O)O)cc1 (configuration not stated)		> 250	
